# Reference: patent US4374284A, “Antiulcer, antiinflammatory, and antiallergic agent comprising as the main ingredient olean-12-ene-3β, 30-diol which is devoid of side effects of glycyrrhetinic acid and a new process for preparation of olean-12-ene-3β, 30-diol” (Minophagen Pharmaceutical Company, priority 1980, dated 1983)
# Entries after “also recorded” stand apart in the source; their conditions may differ.
# Columns and labels:
# [1] = test system: mice; experiment: acute toxicity test; type: in vivo, male mice (ddY); conditions: oral and intraperitoneal
# Description: (§1) To male mice (ddY) weighing 24 g-26 g, 10 mice in one group, compounds to be tested (suspended in Tween 80) in various doses of the ratio (1, 2) were administered (orally and intraperitoneally), and LD50 was determined by the Litchfield-Wilcoxon method.
# [2] = acute toxicity test; type: in vivo, male mice (ddY); conditions: mouse, in vivo
# Description: as §1
# [3] = test system: aspirin-induced ulcer; experiment: rat experiment on aspirin-induced ulcer, pylorus ligated (experiment a); type: in vivo, male Wister rats
# Description: (b) Rat experiment on aspirin-induced ulcer
# (a) Experimental procedures:
# Male Wister rats weighing about 220 g were made to fast for 24 hours. Water was given freely. The rats were laparotomized under anesthesia with ether. The stomach was drawn out and ligated at the pylorus. Immediately thereafter, 1% CMC suspension of aspirin was administered orally in a dose of 100 mg/kg/5 ml. Aqueous suspensions of compounds to be tested were prepared in the same manner as in the experiment (a) and administered intraduodenally at the same time. The wound was closed and the rats were set free. After 7 hours, the stomach was excised and ulcer was measured in the same manner as in the experiment (a).
# [4] = test system: Arthus phenomenon (type III allergy); experiment: Arthus phenomenon test (type III allergy); type: in vivo, female guinea pig
# Description: (b) Arthus phenomenon test (type III allergy)
# To the back part of female guinea pig weighing 250-300 g, 10 mg/kg of egg albumin was administered subcutaneously. After 21 days, 2 mg/kg of egg albumin was administered intravenously, whereby death of the guinea pig due to anaphylactic shock was recognized to confirm establishment of sensitization. Thirty minutes after compounds to be tested were administered intraperitoneally, 0, 10, 100, 1000 μg/0.1 ml of egg albumin were each administered to the abdominal part which had been shaved.
# [5] = test system: PCA reaction (type I allergy); experiment: PCA test (type I allergy); type: in vivo, male Wister rats
# Description: (a) PCA--Test (type I allergy)
# Male Wister rats weighing […] were shaved at the abdomen. After 24 hours, 0.05 ml of serum diluted with saline (Blood samples were diluted to 1/32 and 1/64; The blood samples were collected from rats 3 weeks after administration of pertussis vaccine and egg albumin.) was injected intradermally at the abdomen. After 48 hours, compounds to be tested were administered intraperitoneally. Two hours thereafter, 0.5 ml./100 g of a solution of antigen and pigment (a solution of 0.4% egg albumin and 0.5% Pontamine sky blue) was administered. After 45 minutes, the rats were decapitated and bled, and the diameter of the pigment-leaking site under the skin was measured to obtain the area.
# [6] = test system: rat paw edema induced with carrageenin; experiment: test on rat paw edema induced with carrageenin (antiinflammatory); type: in vivo, male Wister rats
# Description: (a) Test on rat paw induced with carrageenin
# To the plantar side of the hind paw of male Wister rats was administered subcutaneously 0.05 ml/rat of 10% saline solution of carrageenin. Edema after three hours was measured by the volume method and the rate of inhibition was assayed. Compounds were administered orally 30 minutes before administration of carrageenin. [formula]
smiles,measurement,setting,value
"CC1(C)[C@@H](O)CC[C@]2(C)[C@H]3CC=C4[C@@H]5C[C@@](C)(CO)CC[C@]5(C)CC[C@@]4(C)[C@]3(C)CC[C@@H]12 [I, olean-12-ene-3β, 30-diol]",acute toxicity (in words),[1],very low toxicity
same,LD50,"[2]; ip, intraperitoneal administration",> 4000 mg/kg
same,LD50,[2]; oral administration,> 5000 mg/kg
same,ulcer index,"[3]; 320 mg/kg (head p.o.; text intraduodenally), aspirin 100 mg/kg, after 7 hours, control 14.1 ± 3.14",6.2 ± 2.37
same,"inhibitory effect on aspirin-induced ulcer, experiment (a) (in words)","[3]; rat, in vivo",showed an inhibitory effect
same,area,"[4]; egg albumin 10 μg/0.1 ml, 100 mg/kg intraperitoneally, control 0",0 mm^2
same,area,"[4]; egg albumin 10 μg/0.1 ml, 200 mg/kg intraperitoneally, control 0",0 mm^2
same,area,"[4]; egg albumin 100 μg/0.1 ml, 100 mg/kg intraperitoneally, control 110 ± 67",98 ± 98 mm^2
same,area,"[4]; egg albumin 100 μg/0.1 ml, 200 mg/kg intraperitoneally, control 110 ± 67",30 ± 30 mm^2
same,area,"[4]; egg albumin 1000 μg/0.1 ml, 100 mg/kg intraperitoneally, control 409 ± 130",334 ± 174 mm^2
same,area,"[4]; egg albumin 1000 μg/0.1 ml, 200 mg/kg intraperitoneally, control 409 ± 130",76 ± 62 mm^2
same,area,"[5]; serum 1/32, 100 mg/kg intraperitoneally, control 35.2 ± 5.3",22.3 ± 9.1 mm^2
same,area,"[5]; serum 1/64, 100 mg/kg intraperitoneally, control 16.4 ± 2.8",6.8 ± 4.6 mm^2
same,area,"[5]; serum 1/64, 200 mg/kg intraperitoneally, control 16.4 ± 2.8",6.3 ± 4.8 mm^2
same,PCA activity compared with (II) (in words),[5]; serum diluted to 1/64,a little stronger than that of (II)
same,edema %,"[6]; 200 mg/kg p.o., after three hours, control 71 ± 6",52 ± 5%
same,inhibition at 200 mg/kg,"[6]; Rattus norvegicus, po, 3 h, edema, 200 mg/kg p.o., after three hours",26.8%
same,inhibitory activity against inflammation (in words),"[6]; rat, in vivo","has an inhibitory activity against inflammation, but the activity is inferior to that of aspirin; also recorded: will not affect the inhibitory activity of aspirin"
